From ChEMBL document CHEMBL2034833, “Synthesis of chalcone-amidobenzothiazole conjugates as antimitotic and apoptotic inducing agents” (Bioorg Med Chem, 2012)
Calls of active or inactive are those of the source. The rule behind the calls is not given here.

Legend:
[1] = test system: A549; test: Cell cycle arrest in human A549 cells assessed as cell accumulation at subG1 phase at 2 uM after 48 hrs by propidium iodide staining based flow cytometry (reference value: […]); type: functional
[2] = test system: A549; test: Cell cycle arrest in human A549 cells assessed as cell accumulation at G0/G1 phase at 2 uM after 48 hrs by propidium iodide staining based flow cytometry (reference value: 70.15%); type: functional
[3] = test system: A549; test: Cell cycle arrest in human A549 cells assessed as cell accumulation at G2/M phase at 2 uM after 48 hrs by propidium iodide staining based flow cytometry (reference value: 23.75%); type: functional
[4] = Inhibition of tubulin polymerization at 3 uM after 1 hr by fluorescence assay
[5] = Inhibition of tubulin polymerization after 1 hr by fluorescence assay
[6] = target: Tubulin (Homo sapiens) (UniProt P68371+Q9H4B7+P0DPH7+P68366+Q13509+Q71U36+P04350+Q3ZCM7+P07437+P68363+Q9BQE3+Q6PEY2+Q13885+Q9BVA1+Q9BUF5); test: Inhibition of tubulin polymerization in human A549 cells assessed as disrupted microtubule organization at 2 uM after 48 hrs by immunohistochemistry analysis; type: cell-based
[7] = test system: A549; test: Induction of apoptosis in human A549 cells assessed as increase in caspase3 activity using AFC-conjugated Ac-DEVD as substrate at 2 uM after 48 hrs by fluorescence assay relative to control; type: functional
[8] = test system: A-375; test: Cytotoxicity against human A375 cells after 48 hrs by MTT assay; type: functional, cell-based; details: A-375, 48 h
[9] = test system: HT-29; test: Cytotoxicity against human HT-29 cells after 48 hrs by MTT assay; type: functional, cell-based; details: HT-29, 48 h, read-out: IC50
[10] = test system: ACHN; test: Cytotoxicity against human ACHN cells after 48 hrs by MTT assay; type: functional, cell-based
[11] = test system: A549; test: cells; details: Homo sapiens, A549, 48 h
Description: Cytotoxicity against human A549 cells after 48 hrs by MTT assay

[12] = test system: MCF7; test: cells; details: Homo sapiens, MCF7, 48 h
Description: Cytotoxicity against human MCF7 cells after 48 hrs by MTT assay

| inhibition [4] [%] | IC50 [5] [nM] | inhibition [6] | IC50 [11] [nM] | IC50 [12] [nM] | Compound | Activity [1] [%] | Activity [2] [%] | Activity [3] [%] | fold change (FC) [7] | IC50 [8] [nM] | IC50 [9] [nM] | IC50 [10] [nM] |
| --- | --- | --- | --- | --- | --- | --- | --- | --- | --- | --- | --- | --- |
| 62.6 | 3700 | Active | 760 | 120 | COc1ccc(/C=C/C(=O)c2cc(OC)c(OC)c(OC)c2)cc1O | 12.34 | 18.59 | 55.47 | 6 | 190 | 1900 | 1620 |
| – | – | – | 8100 | 4200 | CCOc1ccc2nc(NC(=O)COc3cc(/C=C/C(=O)c4cc(OC)c(OC)c(OC)c4)ccc3OC)sc2c1 | – | – | – | – | 5800 | 2400 | 2600 |
| 59.6 | – | – | – | – | COC(=O)Nc1nc2cc(C(=O)c3cccs3)ccc2[nH]1 | – | – | – | – | – | – | – |
